Assay results: patent publication US20090181948A1, “DIAMINE DERIVATIVE” (KYOWA HAKKO KOGYO CO., LTD., priority 2005, published 2009)

biological target: T1, histamine H3 receptor (Rattus norvegicus, UniProt Q9QYN8); assay: Histamine H3 receptor binding assay ([3H]-Nα-methylhistamine binding to rat striatum homogenate); conditions: 1 μmol/L test compound; [3H]-Nα-methylhistamine 1 nmol/L; striata of Sprague-Dawley male rats, 25° C., 1 hour; read-out: Inhibition ratio of [3H]-Nα-methylhistamine binding
T1 construct: from tissue; host or cells: rat striatum (Sprague-Dawley, male, 6 weeks), membrane homogenate
Experimental: To the striata of Sprague-Dawley male rats (6 weeks of age), a 10-fold volume of lysis buffer {50 mmol/L [[…] (Tris)]/HCl (pH 7.4), 5 mmol/L ethylenediaminetetraacetic acid (EDTA), a protease inhibitor mixture [1 mg/mL phenylmethylsulfonyl fluoride (PMSF), 1 μg/mL pepstatin A, 1 μg/mL leupeptin, 1 μg/mL chymostatin]} was added and the striata were homogenized. The resulting homogenate was centrifuged (30,000×g, 4° C., 30 min), and the obtained precipitate was resuspended in a 10-fold volume of lysis buffer, followed by centrifugation under the same condition. To the obtained precipitate, a 3-fold volume of lysis buffer was added to suspend the precipitate, and the resulting tissue homogenate was used for a test.
A test compound was dissolved in an assay buffer [50 mmol/L Tris/HCl (pH 7.4), 5 mmol/L EDTA], and [^3H]-N^α-methylhistamine (1 nmol/L) and the tissue homogenate (20 μg, in terms of protein amount) were added thereto, and then, the mixture was incubated at 25° C. for 1 hour. Then, the reaction was terminated by rapid suction filtration on a glass filter [GF/B: Whatman, previously soaked in 0.3 w/v % polyethylenimine for about 30 min]. Then, the glass filter was washed three times with 3 mL of assay buffer. This glass filter was transferred into a scintillation vial and dried at 60° C. for 30 minutes. Then, 0.5 mL of Ultimagold (Perkin Elmer) was added thereto, and the radioactivity (binding amount of [^3H]-N^α-methylhistamine) was measured using a liquid scintillation counter. The obtained value was used as a binding amount in the presence of the test compound. The same procedure as described above was carried out in the absence of the test compound, and the binding amount of [^3H]-N^α-methylhistamine obtained at this time was used as a binding amount in the absence of the test compound. Further, the binding amount of [^3H]-N^α-methylhistamine obtained in the presence of 10 μmol/L thioperamide was used as a non-specific binding amount. An inhibitory action of [^3H]-N^α-methylhistamine binding was represented by an inhibition ratio in terms of 1 μmol/L of the test compound calculated by the following Equation (1).
Inhibition ratio(%)={1−[(Binding amount in the presence of test compound)−(Non-specific binding amount)]/[(Binding amount in the absence of test compound)−(Non-specific binding amount)]}×100 (1)

T1 sequence (Q9QYN8 whole entry): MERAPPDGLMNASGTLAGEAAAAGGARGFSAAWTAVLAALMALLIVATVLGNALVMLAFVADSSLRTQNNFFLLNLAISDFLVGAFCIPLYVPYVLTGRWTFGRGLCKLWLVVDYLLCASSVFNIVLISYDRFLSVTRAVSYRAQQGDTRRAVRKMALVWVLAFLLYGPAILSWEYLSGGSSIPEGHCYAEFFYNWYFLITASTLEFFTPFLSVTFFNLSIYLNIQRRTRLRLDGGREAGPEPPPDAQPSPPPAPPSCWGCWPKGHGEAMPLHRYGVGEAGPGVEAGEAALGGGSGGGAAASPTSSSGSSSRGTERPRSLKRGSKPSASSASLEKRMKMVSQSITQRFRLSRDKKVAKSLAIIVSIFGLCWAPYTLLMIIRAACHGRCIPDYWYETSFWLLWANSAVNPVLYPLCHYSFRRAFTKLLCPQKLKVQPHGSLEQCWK

Inhibition at 1 µM, ≥ 80%:
CC(C)N1CCC(N2CCCN(CCCN3CCCCC3)C2=C(C#N)C#N)CC1 [Compound 238, [1-(1-Isopropylpiperidin-4-yl)-3-(3-piperidinopropyl)tetrahydropyrimidin-2-ylidene]malononitrile]
CC1CCCN(CCCN2CCN(CCCN3CCCCC3)C2=C(C#N)C#N)C1 (stereo not shown) [Compound 99, {1-[3-(3-Methylpiperidino)propyl]-3-(3-piperidinopropyl)imidazolidin-2-ylidene}malononitrile]
CC1CC(C)CN(CCCN2CCN(CCCN3CCCCCC3)C2=C(C#N)C#N)C1 (stereo not shown) [Compound 70, {1-[3-(Azepan-1-yl)propyl]-3-[3-(3,5-dimethylpiperidino)propyl]imidazolidin-2-ylidene}malononitrile]
CC1CC(C)CN(CCN2CCN(CCCN3CCC(C#N)CC3)C2=C(C#N)C#N)C1 (stereo not shown) [Compound 42, {1-[3-(4-Cyanopiperidino)propyl]-3-[2-(3,5-dimethylpiperidino)ethyl]imidazolidin-2-ylidene}malononitrile]
C[C@@H]1C[C@H](C)CN(CCN2CCN(CCCN3CCCC3)C2=C(C#N)C#N)C1 [Compound 18, {1-[2-(Cis-3,5-dimethylpiperidino)ethyl]-3-[3-(pyrrolidin-1-yl)propyl]imidazolidin-2-ylidene}malononitrile]
C[C@H]1CCCN1CCN(C)C(=C(C#N)C#N)N1CCC(CN2CCCCC2)CC1 [Compound 153, ({N-methyl-N-[2-((S)-2-methylpyrrolidin-1-yl)ethyl]amino}(4-piperidinomethylpiperidino)methylene)malononitrile]
CC1CC(C)CN(CCCN2CCN(CCCN3CCCC3)C2=C(C#N)C#N)C1 (stereo not shown) [Compound 96, {1-[3-(3,5-Dimethylpiperidino)propyl]-3-[3-(pyrrolidin-1-yl)propyl]imidazolidin-2-ylidene}malononitrile]
CC1CC(C)CN(CCCN2CCN(CCCN3CCCC3C)C2=C(C#N)C#N)C1 (stereo not shown) [Compound 110, {1-[3-(3,5-Dimethylpiperidino)propyl]-3-[3-(2-methylpyrrolidin-1-yl)propyl]imidazolidin-2-ylidene}malononitrile]
CC1CCCN(CCN2CCN(CCCN3CCC[C@@H]3C)C2=C(C#N)C#N)C1 (stereo partly drawn) [Compound 199, {3-[2-(3-Methylpiperidino)ethyl]-1-[3-((S)-2-methylpyrrolidin-1-yl)propyl]imidazolidin-2-ylidene}malononitrile]
CC1CCCN1CC1CCN(C(=C(C#N)C#N)N(C)CCN2CCC[C@@H]2C)CC1 (stereo partly drawn) [Compound 157, ({N-methyl-N-[2-((S)-2-methylpyrrolidin-1-yl)ethyl]amino}[4-(2-methylpyrrolidin-1-ylmethyl)piperidino]methylene)malononitrile]
CC1CCCN1CCCN1CCN(CCN2CCCCC2)C1=C(C#N)C#N (stereo not shown) [Compound 33, {1-[3-(2-Methylpyrrolidin-1-yl)propyl]-3-(2-piperidinoethyl)imidazolidin-2-ylidene}malononitrile]
C[C@@H]1CCCN1CCN1CCN(CCCN2CCC[C@@H]2C)C1=C(C#N)S(=O)(=O)c1ccccc1 [Compound 243, {3-[2-((R)-2-methylpyrrolidin-1-yl)ethyl]-1-[3-((S)-2-methylpyrrolidin-1-yl)propyl]imidazolidin-2-ylidene}benzenesulfonylacetonitrile]
CC1CC(C)CN(CCCN2CCN(CCN3CC(C)CC(C)C3)C2=C(C#N)C#N)C1 (stereo not shown) [Compound 17, {1-[2-(3,5-Dimethylpiperidino)ethyl]-3-[3-(3,5-dimethylpiperidino)propyl]imidazolidin-2-ylidene}malononitrile]
N#CC(C#N)=C1N(CCCN2CCCC2)CCN1CCCN1CCCC1 [Compound 94, {1,3-Bis[3-(pyrrolidin-1-yl)propyl]imidazolidin-2-ylidene}malononitrile]
CC1CCCN(CCCN2CCN(CCCN3CCOCC3)C2=C(C#N)C#N)C1 (stereo not shown) [Compound 80, {1-[3-(3-Methylpiperidino)propyl]-3-(3-morpholinopropyl)imidazolidin-2-ylidene}malononitrile]
CC1CCCN1CCCNC(=C(C#N)C#N)N1CCC(CN2CCCCC2)CC1 (stereo not shown) [Compound 173, {[3-(2-Methylpyrrolidin-1-yl)propylamino](4-piperidinomethylpiperidino)methylene}malononitrile]
N#CC(C#N)=C1N(CCCN2CCCCC2)CCN1CCCN1CCC(O)C1 (stereo not shown) [Compound 101, {1-[3-(3-Hydroxypyrrolidin-1-yl)propyl]-3-(3-piperidinopropyl)imidazolidin-2-ylidene}malononitrile]
CC(C)N1CCC(NC(=C(C#N)C#N)N2CCC(CN3CCCCC3)CC2)CC1 [Compound 178, [(1-Isopropylpiperidin-4-ylamino)(4-piperidinomethylpiperidino)methylene]malononitrile]
CC1CCCN1CCCN1CCN(CCCN2CCCC2C)C1=C(C#N)S(=O)(=O)c1ccccc1 (stereo not shown) [Compound 244, {1,3-Bis[3-(2-methylpyrrolidin-1-yl)propyl]imidazolidin-2-ylidene}benzenesulfonylacetonitrile]
CC1CCCN1CCCN1CCN(CCCN2CCCC2C)C1=NC#N (stereo not shown) [Compound 140, 1,3-Bis[3-(2-methylpyrrolidin-1-yl)propyl]imidazolidin-2-ylidenecyanoamide Difumarate]
CC1CCCCN1CCCN1CCN(CCCN2CCCC2)C1=C(C#N)C#N (stereo not shown) [Compound 93, {1-[3-(2-Methylpiperidino)propyl]-3-[3-(pyrrolidin-1-yl)propyl]imidazolidin-2-ylidene}malononitrile]
CC1CCCN1CC1CCN(C(NCCN2CCCCC2)=C(C#N)C#N)CC1 (stereo not shown) [Compound 148, {[4-(2-Methylpyrrolidin-1-ylmethyl)piperidino](2-piperidinoethylamino)methylene}malononitrile]
CC1CCCN1CCCN1CCN(CCCN2CCOCC2)C1=C(C#N)C#N (stereo not shown) [Compound 85, {1-[3-(2-Methylpyrrolidin-1-yl)propyl]-3-(3-morpholinopropyl)imidazolidin-2-ylidene}malononitrile]
CC(C)N1CCC(CN2CCN(CCCN3CCCCC3)C2=C(C#N)C#N)CC1 [Compound 133, {1-[(1-Isopropylpiperidin-4-yl)methyl]-3-(3-piperidinopropyl)imidazolidin-2-ylidene}malononitrile]
N#CC(C#N)=C1N(CCCN2CCCCCC2)CCN1CCCN1CCCC1 [Compound 69, {1-[3-(Azepan-1-yl)propyl]-3-[3-(pyrrolidin-1-yl)propyl]imidazolidin-2-ylidene}malononitrile]
CCN(CC)CCN1CCN(CCCN2CCCCC2)C1=C(C#N)C#N [Compound 49, [1-(2-Diethylaminoethyl)-3-(3-piperidinopropyl)imidazolidin-2-ylidene]malononitrile]
CC1CCCCN1CCCN1CCN(CCCN2CC=CCC2)C1=C(C#N)C#N (stereo not shown) [Compound 86, {1-[3-(1,2,3,6-Tetrahydropyridin-1-yl)propyl]-3-[3-(2-methylpiperidino)propyl]imidazolidin-2-ylidene}malononitrile]
CC(C)N1CCC(N2CCN(CCC3CCCN3C)C2=C(C#N)C#N)CC1 (stereo not shown) [Compound 187, {1-(1-Isopropylpiperidin-4-yl)-3-[2-(1-methylpyrrolidin-2-yl)ethyl]imidazolidin-2-ylidene}malononitrile]
N#CC(C#N)=C1N(CCCN2CCCCC2)CCN1CCCN1CCOCC1 [Compound 83, [1-(3-Morpholinopropyl)-3-(3-piperidinopropyl)imidazolidin-2-ylidene]malononitrile]
N#CC(C#N)=C(NCCCN1CCCCC1)N1CCC(CN2CCCCC2)CC1 [Compound 172, [(4-Piperidinomethylpiperidino)(3-piperidinopropylamino)methylene]malononitrile]
CC1CCCN1CCCNC(=C(C#N)C#N)N1CCC(CN2CCCC2C)CC1 (stereo not shown) [Compound 174, {[4-(2-Methylpyrrolidin-1-ylmethyl)piperidino][3-(2-methylpyrrolidin-1-yl)propylamino]methylene}malononitrile]
